According to ChEMBL document CHEMBL5335844, “Design, synthesis and preliminary biological evaluation of rivastigmine-INDY hybrids as multitarget ligands against Alzheimer's disease by targeting butyrylcholinesterase and DYRK1A/CLK1 kinases” (RSC Med Chem, 2024):

Legend:
Acetylcholinesterase [1] = target: T1, Acetylcholinesterase (Homo sapiens, UniProt P22303); assay: Inhibition of human erythrocyte AChE at 10 uM using acetylthiocholine iodide as substrate preincubated for 5 mins followed by substrate addition and measured every min for 10 mins by Ellman's method relative to control; settings: time 15.0 min
Cholinesterase = Cholinesterase (Equus caballus, UniProt P81908); assay: Inhibition of equine serum BuChE using butyrylthiocholine iodide as substrate preincubated for 5 mins followed by substrate addition and measured every min for 10 mins by Ellman's method; type: cell-free
[2] = Chromatographic hydrophobicity index, logD of the compound at pH 7.4 by reversed phase HPLC analysis; type: physicochemical; settings: buffer
[3] = target: T2, Dual specificity protein kinase CLK1 (Homo sapiens, UniProt P49759); assay: Inhibition of human CLK1 using ERMRPRKRQGSVRRRV as substrate incubated for 40 mins in presence of Mg/[gamma-33P]-ATP by scintillation counting method
Target sequence in this assay (P49759 whole entry): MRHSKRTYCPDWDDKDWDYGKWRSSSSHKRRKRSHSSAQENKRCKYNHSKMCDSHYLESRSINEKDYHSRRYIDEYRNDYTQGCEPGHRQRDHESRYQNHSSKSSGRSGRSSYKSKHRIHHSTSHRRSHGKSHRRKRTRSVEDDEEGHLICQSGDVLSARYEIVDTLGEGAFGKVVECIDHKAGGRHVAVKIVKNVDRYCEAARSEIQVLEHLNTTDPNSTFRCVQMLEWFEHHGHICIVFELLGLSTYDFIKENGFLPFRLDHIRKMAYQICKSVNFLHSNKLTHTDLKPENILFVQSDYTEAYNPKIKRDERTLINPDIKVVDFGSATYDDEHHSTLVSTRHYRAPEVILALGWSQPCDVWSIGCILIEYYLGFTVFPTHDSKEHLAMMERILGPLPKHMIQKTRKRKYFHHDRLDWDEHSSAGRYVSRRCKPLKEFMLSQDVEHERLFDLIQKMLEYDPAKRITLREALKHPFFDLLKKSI

[4] = target: T3, Dual specificity tyrosine-phosphorylation-regulated kinase 1A (Homo sapiens, UniProt Q13627); assay: Inhibition of human DYRK1A using RRRFRPASPLRGPPK as substrate incubated for 40 mins in presence of Mg/[gamma-33P]-ATP by scintillation counting method
[5] = target: T3, Dual specificity tyrosine-phosphorylation-regulated kinase 1A; assay: Inhibition of human DYRK1A at 10 uM using RRRFRPASPLRGPPK as substrate incubated for 40 mins in presence of Mg/[gamma-33P]-ATP by scintillation counting method relative to control
Acetylcholinesterase [6] = target: T1, Acetylcholinesterase; assay: Inhibition of human erythrocyte AChE using acetylthiocholine iodide as substrate preincubated for 5 mins followed by substrate addition and measured every min for 10 mins by Ellman's method
[7] = target: Cholinesterase (Equus caballus) (UniProt P81908); assay: Inhibition of equine serum BuChE at 10 uM using butyrylthiocholine iodide as substrate preincubated for 5 mins followed by substrate addition and measured every min for 10 mins by Ellman's method relative to control; type: cell-free; settings: time 15.0 min
[8] = Solubility of the compound in PBS at pH 7.4 by HPLC analysis; type: physicochemical; settings: buffer
[9] = target: T2, Dual specificity protein kinase CLK1; assay: Inhibition of human CLK1 at 10 uM using ERMRPRKRQGSVRRRV as substrate incubated for 40 mins in presence of Mg/[gamma-33P]-ATP by scintillation counting method relative to control
Target sequence in this assay (P49759 whole entry, looked up): as the sequence (P49759 whole entry) above

T1 sequence (P22303 whole entry): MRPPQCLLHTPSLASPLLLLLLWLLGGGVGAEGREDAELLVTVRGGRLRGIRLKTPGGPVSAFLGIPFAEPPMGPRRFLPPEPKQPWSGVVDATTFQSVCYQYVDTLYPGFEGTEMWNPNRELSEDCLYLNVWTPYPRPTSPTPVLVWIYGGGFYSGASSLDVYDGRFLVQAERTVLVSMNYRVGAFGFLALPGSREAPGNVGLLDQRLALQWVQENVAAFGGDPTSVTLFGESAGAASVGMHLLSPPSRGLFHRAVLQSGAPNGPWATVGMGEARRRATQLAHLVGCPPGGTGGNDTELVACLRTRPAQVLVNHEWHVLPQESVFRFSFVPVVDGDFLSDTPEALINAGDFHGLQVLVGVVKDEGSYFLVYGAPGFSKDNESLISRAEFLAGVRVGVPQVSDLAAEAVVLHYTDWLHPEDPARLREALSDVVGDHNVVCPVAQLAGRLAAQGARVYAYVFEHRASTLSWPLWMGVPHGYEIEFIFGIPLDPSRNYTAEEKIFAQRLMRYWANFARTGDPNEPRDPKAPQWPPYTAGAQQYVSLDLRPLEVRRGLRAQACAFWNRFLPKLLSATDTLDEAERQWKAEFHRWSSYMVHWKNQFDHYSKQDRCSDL
Cholinesterase, sequence (P81908 whole entry): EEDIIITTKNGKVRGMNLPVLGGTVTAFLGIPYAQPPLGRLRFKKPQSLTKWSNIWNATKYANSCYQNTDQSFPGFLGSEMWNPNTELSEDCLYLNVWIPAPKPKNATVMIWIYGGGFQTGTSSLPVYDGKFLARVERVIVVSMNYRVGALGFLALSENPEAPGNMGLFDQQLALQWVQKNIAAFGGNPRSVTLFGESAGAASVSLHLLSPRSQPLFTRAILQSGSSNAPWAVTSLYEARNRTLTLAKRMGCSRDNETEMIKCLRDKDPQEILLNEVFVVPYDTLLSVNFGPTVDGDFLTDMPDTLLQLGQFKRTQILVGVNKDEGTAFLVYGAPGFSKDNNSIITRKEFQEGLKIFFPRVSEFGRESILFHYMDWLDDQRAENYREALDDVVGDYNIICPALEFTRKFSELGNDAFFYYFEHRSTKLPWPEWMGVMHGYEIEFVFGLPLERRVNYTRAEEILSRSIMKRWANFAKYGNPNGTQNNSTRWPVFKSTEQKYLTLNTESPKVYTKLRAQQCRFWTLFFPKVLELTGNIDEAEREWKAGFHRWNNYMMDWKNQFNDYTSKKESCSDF
Cholinesterase (Equus caballus), sequence (P81908 whole entry): as above

Which results are given for `CCCCCCCNC(=O)Oc1ccc2c(c1)N(CCc1ccccc1)/C(=C/C(C)=O)S2`?
inhibition (Acetylcholinesterase [1]): < 10%; IC50 (Cholinesterase): 26.7 nM; chromatographic logD [2]: 4.36

Which IC50 [3] does the source give for `COc1cccc(CN2/C(=C/C(C)=O)Sc3ccc(O)cc32)c1` here?
Its IC50 is 76 nM.

And the IC50 [4]?
Its IC50 is 883 nM.

Which results are given for `CCCCCCNC(=O)Oc1ccc2c(c1)N(Cc1ccccc1)/C(=C/C(C)=O)S2`?
inhibition (Acetylcholinesterase [1]): < 10%; IC50 (Cholinesterase): 470 nM

Which results are given for `CC(=O)/C=C1\Sc2ccc(O)cc2N1CCc1ccccc1`?
IC50 [3]: 17 nM; IC50 [4]: 106 nM

For `CCCCCCCNC(=O)Oc1ccc2c(c1)N(Cc1cccc(OC)c1)/C(=C/C(C)=O)S2`, which IC50 (Cholinesterase) is on record?
The IC50 was 2190 nM.

What does the source list for `CC(=O)/C=C1\Sc2ccc(O)cc2N1Cc1ccc(Cl)cc1`?
inhibition [5]: 75%; IC50 [3]: 40 nM

For `CC(=O)/C=C1\Sc2ccc(O)cc2N1Cc1cccc(C)c1`, which IC50 [3] is on record?
The IC50 was 39 nM.

And the IC50 [4]?
Its IC50 is 429 nM.

Which results are given for `CCCCCCNC(=O)Oc1ccc2c(c1)N(CC)/C(=C/C(C)=O)S2`?
IC50 (Cholinesterase): 2000 nM; IC50 (Acetylcholinesterase [6]): 14000 nM

What does the source list for `CCN1/C(=C/C(C)=O)Sc2ccc(OC(=O)N(C)C)cc21`?
IC50 (Cholinesterase): > 10000 nM; inhibition [7]: 25%

With `CC(=O)/C=C1\Sc2ccc(O)cc2N1Cc1cccc(Cl)c1` as the molecule, how does the IC50 [3] read?
The IC50 was 33 nM.

What about the IC50 [4] of the same molecule?
Its IC50 is 885 nM.

For `CCCCCCCNC(=O)Oc1ccc2c(c1)N(CC)/C(=C/C(C)=O)S2`, which IC50 (Cholinesterase) is on record?
Its IC50 is 1640 nM.

With `CCCCCCCNC(=O)Oc1ccc2c(c1)N(Cc1cccc(C)c1)/C(=C/C(C)=O)S2` as the molecule, how does the IC50 (Cholinesterase) read?
The IC50 was 761 nM.

For `CCCCCCCNC(=O)Oc1ccc2c(c1)N(Cc1ccc(Cl)cc1)/C(=C/C(C)=O)S2`, which IC50 (Cholinesterase) is on record?
Its IC50 is 821 nM.

Which inhibition (Acetylcholinesterase [1]) does the source give for `CCN(C)C(=O)Oc1ccc2c(c1)N(CCc1ccccc1)/C(=C/C(C)=O)S2` here?
Its inhibition is < 10%.

What about the IC50 (Cholinesterase) of the same molecule?
The IC50 was 439 nM.

Which IC50 (Cholinesterase) does the source give for `CCN1/C(=C/C(C)=O)Sc2ccc(OC(=O)NCCc3ccccc3)cc21` here?
Its IC50 is 6000 nM.

What about the IC50 (Acetylcholinesterase [6]) of the same molecule?
The IC50 was 20000 nM.

Which IC50 (Cholinesterase) does the source give for `CCCCCCCNC(=O)Oc1ccc2c(c1)N(Cc1cccc(Cl)c1)/C(=C/C(C)=O)S2` here?
Its IC50 is 703 nM.

Which inhibition (Acetylcholinesterase [1]) does the source give for `CCN(C)C(=O)Oc1ccc2c(c1)N(Cc1ccccc1)/C(=C/C(C)=O)S2` here?
Its inhibition is < 10%.

And the IC50 (Cholinesterase)?
Its IC50 is 68 nM.

What about the solubility [8] of the same molecule?
Its solubility is “Soluble”.

What about the chromatographic logD [2] of the same molecule?
The chromatographic logD was 3.

Which inhibition (Acetylcholinesterase [1]) does the source give for `CCCCCCCNC(=O)Oc1ccc2c(c1)N(Cc1ccccc1)/C(=C/C(C)=O)S2` here?
The inhibition was < 10%.

And the IC50 (Cholinesterase)?
Its IC50 is 154 nM.

With `CCN1/C(=C/C(C)=O)Sc2ccc(OC(=O)NCc3cccnc3)cc21` as the molecule, how does the IC50 (Cholinesterase) read?
Its IC50 is 12000 nM.

What about the IC50 (Acetylcholinesterase [6]) of the same molecule?
Its IC50 is 34000 nM.

What does the source list for `CCN1/C(=C/C(C)=O)Sc2ccc(OC(=O)NC3CCCCC3)cc21`?
IC50 (Cholinesterase): 13000 nM; IC50 (Acetylcholinesterase [6]): 11000 nM

For `CCCCCCCNC(=O)Oc1ccc2c(c1)N(Cc1ccc3ccccc3c1)/C(=C/C(C)=O)S2`, which IC50 (Cholinesterase) is on record?
The IC50 was > 10000 nM.

Which IC50 [3] does the source give for `CC(=O)/C=C1\Sc2ccc(O)cc2N1Cc1ccccc1` here?
The IC50 was 54 nM.

What about the IC50 [4] of the same molecule?
The IC50 was 529 nM.

Which IC50 (Cholinesterase) does the source give for `CCCCNC(=O)Oc1ccc2c(c1)N(Cc1ccccc1)/C(=C/C(C)=O)S2` here?
The IC50 was > 10000 nM.

What about the inhibition [7] of the same molecule?
The inhibition was 22%.

For `CC(=O)/C=C1\Sc2ccc(O)cc2N1Cc1ccc2ccccc2c1`, which inhibition [9] is on record?
Its inhibition is 72%.

What about the inhibition [5] of the same molecule?
Its inhibition is 24%.
